Key:
bovine PKC alpha [1] = assay: PKC catalytic activity in vitro (phosphorylation of [ser25]PKC19-31 in detergent cell extracts); type: biochemical; settings: for inhibition of PKC alpha catalytic activity / activation of PKC alpha in vitro: PKC alpha expressed in yeast; for PMA and Ca^2+ stimulated mutant PKC activity: Ca^2+: Ca^2+ stimulation of in vitro catalytic activity; for PMA and Ca^2+ stimulated mutant PKC activity: PMA: PMA stimulation, common symbol for in vitro catalytic activity and PMA-mediated increase of cell doubling time; for PMA and Ca^2+ stimulated mutant PKC activity: -: no stimulus (basal), common symbol for in vitro catalytic activity and cell doubling time response
Protocol: FIG. 4 is a graph which compares PKC mutant and wild type catalytic activities in vitro. […] Catalytic activity was stimulated by combinations of phosphatidylserine (PS), the phorbol ester PMA and calcium ions (Ca^2+). PS, open; PMA+PS, solid; Ca^2+ +PS, diagonally striped.
Cell lysis. About 6×10^8 expressing cells were washed in PBS and were resuspended in 1 ml lysis buffer containing 1% Triton X100, 50 mM Hepes pH 7.4, 15-mM NaC1, 5 mM EDTA, 5 mM EGTA, 10 μg/ml pepstatin, 40 μg/ml leupeptin, 10 μg/ml aprotinin and 200 μg/ml PMSF. Cell suspensions mixed with the same volume of acid washed glass beads (450-500 μm) were lysed mechanically by six 30 second vortexing steps interrupted by cooling on ice for at least 30 second in 50 ml screw cap polypropylene tubes. The lysate was cleared by 4,000 g centrifugation for 15 minutes at 4 degrees C and stored at […] for up to several weeks.
PKC catalytic activity. […] Phosphatidylserine in chloroform, with or without PMA was evaporated under N2 to dryness, resuspended in 20 mM Tris pH 7.5, mixed and sonicated at 4 degrees C for 45 seconds before use. To terminate the reaction the sample was placed on phosphocellulose paper (Whatman P81) which was repeatedly washed in 75 mM phosphoric acid. Bound radioactivity was determined by liquid scintillation spectroscopy.

[2] = test system: Saccharomyces cerevisiae strain 334 expressing bovine PKC alpha; assay: Cell doubling time of yeast cultures expressing PKC alpha wild type and mutant cDNAs; type: cell-based
Protocol: FIG. 2 is a graph of cell doubling time of yeast cultures expressing PKC alpha wild type and mutant cDNAs. Freshly saturated cultures expressing control plasmids (Cont.), normal PKC alpha (PKCa) or deletion mutants D172-225, ND153 or CD26 were diluted to low cell densities. Cell growth was followed on a roller at 30 degrees C to measurable cell densities of the logarithmic growth phase at 0.2-0.6 O.D. 600. […] Average doubling times were calculated.
Yeast strains and culture conditions. PKC expression plasmids and YEp51 or YEp52 as controls were introduced into Saccharomyces cerevisiae strain 334 [MAT alpha, pep 4-3, prb1-122, ura 3-52; leu2-3, 112, reg1-501, gal1]by lithium acetate transformation See e.g., Ito et al. 1983, J. Bacterial. 153: 163. Cells were routinely grown at 30 degrees C on a culture roller or shaker in liquid culture or on 1.5% agar plates. The synthetic medium contained 2% glucose and was leucine-free to select for stable propagation of the expression plasmids. Expressing yeast colonies were identified phenotypically by replica plating on medium containing or lacking PMA. Phenol extracts of crude cell lysates were prepared to re-transform Escherichia coli DH5 alpha. PKC mutants were characterized by DNA sequencing and defined plasmids were re-introduces into S. cerevisiae 334. These strains were used in all experiments shown. 50 ml cultures were routinely inoculated from freshly saturated cultures and grown for 16 h to an optical density of 0.4 at O.D.600.
Cell doubling times were measured by O.D.600 reading of liquid cultures in the presence of 2% galactose as shown in FIG. 2 to test whether they correlate with the specific phenotypes (colony size) caused by normal mutant PKC alpha. […] A normal 4 hours doubling time was measured for all constructs in the absence of galactose.

[3] = test system: Saccharomyces cerevisiae strain 334 expressing bovine PKC alpha; assay: 45Ca2+ uptake into yeast cells expressing PKC alpha forms; type: cell-based
Protocol: FIG. 5 is a graph of the modulation of extracellular Ca2+uptake by PKC alpha wild type and mutants.
^45 Ca^2 + uptake. Expressing yeast cells after 16 h in 2% galactose medium were washed with PBS when reaching 0.5 O.D.600. 10^7 cells were suspended in 100 μl of 50 mM MES pH 6.5, 5 mM MgSO4 and incubated with 1 μM PMA for 1 h at 30 degrees C under shaking on 96-well plates. Subsequently uptake of 2 μCi 45 Ca2+ at 300 μM CaCl2 was measured for 2 hours. Cells were rapidly transferred to Multiscreen filtration microtiter plates (Millipore) and washed four times with 200 μl of 10 mM MES, 10 mM Tris, 35 mM CaC12 pH 6.0. Filters were dried and cell-associated radioactivity was determined by liquid scintillation spectroscopy.
Ca^2+ influx has been reported in response to PKC activation in a variety of eukaryotic cells such as Nitella syncarpa plasmalemma, Aplysia bag cell neurons, rat ventricular myocytes and rat pituitary cells. To test whether the measured catalytic activities and the yeast phenotype correlate with other biological responses mediated by PKC, ^45 Ca^2+ uptake into expressing cells was determined after PMA stimulation. […] These responses are consistent with the catalytic activities and phenotypic responses of the mutants: elevated basal activity of ND153, full and reduced phorbol ester-stimulated activity of normal PKC alpha and D172-225, respectively, and lack of activity for CD26.

bovine PKC alpha [4] = assay: [3H]PDBu binding to yeast spheroplasts expressing PKC alpha forms; settings: 14 nM [3H]PDBu
Protocol: FIG. 3 is a graph of phorbol ester binding to cells expressing PKC alpha wild type and mutant proteins.
Phorbol ester binding. About 6×10^8 expressing cells were washed twice in 10 mM K-phosphate buffer pH 7.0, 20 mM EDTA, once in 1M sorbitol and were resuspended in 10 ml 10 mM K-phosphate buffer pH 7.0, 1.1M sorbitol, 0.5 mM CaC12. Cells were incubated with 1 U glusulase (beta-glucuronidase/arylsulfatase from Helix pomatia, Boehringer Mannheim) for about 1 hour under shaking at 30 degrees C to remove the cell wall until test cell suspensions cleared in H2 O due to cell lysis.
Both were about 13-fold elevated over background levels of control cells. Similar findings have been reported for PKC overexpression in transfected mammalian fibroblasts. […] The internal deletion of aa 172-225 led to phorbol ester binding levels reduced by 60% compared to normal PKC alpha, a potential consequence of the removal of parts of the C2 domain.

[5] = test system: Saccharomyces cerevisiae strain 334 expressing bovine PKC alpha; assay: Phenotypic screen of PKC alpha mutant activity by yeast colony size on agar plates; type: cell-based; settings: 2% galactose, independent of phorbol ester
Protocol: The phenotypic screen of PKC alpha mutant activity by yeast colony size was performed as follows. […] Plates (9 cm diameter) were photograph after 3 days.
Galactose stimulation of cDNA expression resulted for some PKC forms in specific, decreased yeast colony sizes which were either dependent on or independent of phorbol ester activation after 3 days. […] Microscopically small colonies expressing ND153 grew to visible sizes with rates independently of PMA. Colonies expressing PKC alpha grew even more slowly to visible sizes during continued incubation in the presence of PMA.

Row | Compound | inhibition of PKC alpha catalytic activity (bovine PKC alpha [1]) | activation of PKC alpha in vitro (bovine PKC alpha [1]) | PMA and Ca^2+ stimulated mutant PKC activity: Ca^2+ (bovine PKC alpha [1]) | PMA and Ca^2+ stimulated mutant PKC activity: PMA (bovine PKC alpha [1]) | PMA and Ca^2+ stimulated mutant PKC activity: - (bovine PKC alpha [1]) | other results
1 | CC1CNCCN1S(=O)(=O)c1cccc2cnccc12 (racemic) [H-7, reference compound] | efficiently inhibited |  |  |  |  | 
2 | CC(C)[C@H]1C(=O)N[C@H](CO)Cc2c[nH]c3cccc(c23)N1C [(-)-indolactam V, reference compound] |  | efficiently activated |  |  |  | 
3 | CCCCCCCCCCN(C)c1cc(CO)cc(NC(C)=O)c1 [ADMB, 3-(N-acetylamino)-5(N-decyl-N-methylamino) benzyl alcohol, reference compound] |  | efficiently activated |  |  |  | 
4 | CCCCCCCCCCNc1cc(CO)c2cc[nH]c2c1 [DHI, 6-(N-decylamino)-4-hydroxymethylindole, reference compound] |  | efficiently activated |  |  |  | 
5 | CC1=CC23C(=O)C(C=C(COC(=O)c4ccccc4)C(O)C2(O)C1OC(=O)c1ccccc1)C1C(CC3C)C1(C)C (stereo not drawn) [ID, ingenol 3,20-dibenzoate, reference compound] |  | efficiently activated |  |  |  | 
6 | CCCCCCCCCCCCCC(=O)O[C@@H]1[C@@H](C)[C@@]2(O)[C@@H](C=C(CO)C[C@]3(O)C(=O)C(C)=C[C@@H]23)[C@@H]2C(C)(C)[C@]12OC(C)=O [PMA, phorbol-12-myristate-13-acetate, reference compound] |  | efficiently activated |  |  |  | response of wild-type yeast cells (doubling time, colony size) ([2]; wild-type yeast cells without mammalian PKC, 1 μM PMA): did not respond
7 | CN(C)c1ccc2cc3ccc(N(C)C)cc3nc2c1 [acridine orange, reference compound] | efficiently inhibited |  |  |  |  | 
8 | COc1ccc2c(c[n+](C)c3c4cc5c(cc4ccc23)OCO5)c1OC [chelerythrine, reference compound] | efficiently inhibited |  |  |  |  | 
9 | CC1=C[C@H]2[C@@]3(O)[C@H](C)C[C@]4(OC(=O)Cc5ccccc5)[C@H]([C@@H]3C=C(CO)C[C@]2(O)C1=O)C4(C)C [dPP, 12-deoxyphorbol 1 3-phenylacetate, reference compound] |  | efficiently activated |  |  |  | 
10 | Cc1cc(N)c2ccccc2[n+]1CCCCCCCCCC[n+]1c(C)cc(N)c2ccccc21 [dequalinium, reference compound] | efficiently inhibited |  |  |  |  | 
11 | C=C(C)C12OC3(c4ccccc4)OC1C1C4OC4(CO)C(O)C4(O)C(=O)C(C)=CC4C1(O3)C(C)C2OC(=O)/C=C/C=C/c1ccccc1 (stereo not drawn) [mezerein, reference compound] |  | efficiently activated |  |  |  | 
12 | CCCCCCCCCCCCC/C=C/[C@@H](O)[C@@H](N)CO[C@@H]1O[C@H](CO)[C@H](O)[C@H](O)[C@H]1O [psychosine, reference compound] | efficiently inhibited |  |  |  |  | 
13 | CN1CCN(CCCN2c3ccccc3Sc3ccc(C(F)(F)F)cc32)CC1 [trifluoperazine, reference compound] | efficiently inhibited |  |  |  |  | 
14 | CD26: PKCa deletion of aa 647-672 |  |  | - | - | - | catalytic activity under any conditions (bovine PKC alpha [1]; combinations of phosphatidylserine, PMA and calcium): no activity was detected; Ca2+ uptake after PMA stimulation over the control cell background ([3]; 1 μM PMA): unaffected by phorbol ester; increase in Ca^2+ uptake (basal) ([3]; without PMA stimulation, versus control cells): same basal response as control cells; average cell doubling time ([2]; absence of phorbol ester, 2% galactose, synthetic minimal medium, CD26 and ND153 values phorbol ester-independent): 4 h; [3H]PDBu binding level over background levels of control cells (bovine PKC alpha [4]): about 13 fold; yeast colony size / phenotype [5]: wild-type phenotype under any condition
15 | CD96: PKC alpha deletion mutant lacking 96 carboxyl terminal aa |  |  | - | - | - | 
16 | CD110: PKC alpha deletion mutant lacking 110 carboxyl terminal aa |  |  | - | - | - | 
17 | CD139: PKC alpha deletion mutant lacking 139 carboxyl terminal aa |  |  | - | - | - | 
18 | CD149: PKC alpha deletion mutant lacking 149 carboxyl terminal aa |  |  | - | - | - | 
19 | ND84: PKC alpha deletion mutant lacking 84 amino terminal aa |  |  | ++ | + | + | 
20 | ND158: PKC alpha deletion mutant lacking 158 amino terminal aa |  |  | ++ | + | + | 
21 | ND188: PKC alpha deletion mutant lacking 118 amino terminal aa (printed ND188 in Table 1) |  |  | ++ | + | + | 
22 | ND 140: PKC alpha deletion mutant lacking 140 amino terminal aa |  |  | ++ | + | + | 
23 | polymyxin B [reference compound] | efficiently inhibited |  |  |  |  | 
